From patent US9458172B2, “Pyridinyl and pyrimidinyl sulfoxide and sulfone derivatives” (priority 2012, dated 2016)
Where two headings read alike, the source gives them in different places.

Key:
NAMPT = NAMPT (Homo sapiens (Human), UniProt P43490); assay: Biochemical Inhibition Assay (NAMPT enzymatic reaction, NMN quantified by mass spectrometry); conditions: 33 nM recombinant His-tagged NAMPT, 1 μM NAM, 30 min at rt
Experimental: Assay 1: Biochemical Inhibition Assay
NAMPT protein purification. Recombinant His-tagged NAMPT was produced in E. coli cells, purified over a Ni column, and further purified over a size-exclusion column by XTAL Biostructures.
The NAMPT Enzymatic Reaction. The NAMPT enzymatic reactions were carried out in Buffer A (50 mM Hepes pH 7.5, 50 mM NaCl, 5 mM MgCl2, and 1 mM THP) in 96-well V-bottom plates. The compound titrations were performed in a separate dilution plate by serially diluting the compounds in DMSO to make a 100× stock. […] The compound and enzyme mixture was incubated for 15 min at rt, then 10 μL of 10× substrate and co-factors in Buffer A were added to the test well to make a final concentration of 1 μM NAM, […] 5-Phospho-D-ribose 1-diphosphate (PRPP), and 2.5 mM Adenosine 5′-triphosphate (ATP). The reaction was allowed to proceed for 30 min at rt, then was quenched with the addition of 11 μL of a solution of formic acid and L-Cystathionine to make a final concentration of 1% formic acid and 10 μM L-Cystathionine. Background and signal strength was determined by addition (or non-addition) of a serial dilution of NMN to a pre-quenched enzyme and cofactor mix.
Quantification of NMN. A mass spectrometry-based assay was used to measure the NAMPT reaction product, β-nicotinamide mononucleotide (NMN), and the internal control (L-Cystathionine). NMN and L-Cystathionine were detected using the services of Biocius Lifesciences with the RapidFire system. In short, the NMN and L-Cystathionine were bound to a graphitic carbon cartridge in 0.1% formic acid, eluted in 30% acetonitrile buffer, and injected into a Sciex 4000 mass spectrometer. The components of the sample were ionized with electrospray ionization and the positive ions were detected. […] The fragments are quantified and the analyzed by the following method.
Determination of IC50 Values. First, the NMN signal was normalized to the L-Cystathionine signal by dividing the NMN signal by the L-Cystathionine signal for each well. The signal from the background wells were averaged and subtracted from the test plates.

A2780 cells = assay: In-Vitro Cell Proliferation Assay (SRB)
[1] = Homo sapiens, A2780, 72 h, read-out: Cell Proliferation (IC50)
[2] = read-out: Cell Proliferation (IC50), A2780 cells, 72 h, sulforhodamine B
[3] = Homo sapiens, A2780, 72 h, read-out: Cell Proliferation (IC50), A2780 cells, 72 h, sulforhodamine B

Chain of NAMPT (P43490 whole entry): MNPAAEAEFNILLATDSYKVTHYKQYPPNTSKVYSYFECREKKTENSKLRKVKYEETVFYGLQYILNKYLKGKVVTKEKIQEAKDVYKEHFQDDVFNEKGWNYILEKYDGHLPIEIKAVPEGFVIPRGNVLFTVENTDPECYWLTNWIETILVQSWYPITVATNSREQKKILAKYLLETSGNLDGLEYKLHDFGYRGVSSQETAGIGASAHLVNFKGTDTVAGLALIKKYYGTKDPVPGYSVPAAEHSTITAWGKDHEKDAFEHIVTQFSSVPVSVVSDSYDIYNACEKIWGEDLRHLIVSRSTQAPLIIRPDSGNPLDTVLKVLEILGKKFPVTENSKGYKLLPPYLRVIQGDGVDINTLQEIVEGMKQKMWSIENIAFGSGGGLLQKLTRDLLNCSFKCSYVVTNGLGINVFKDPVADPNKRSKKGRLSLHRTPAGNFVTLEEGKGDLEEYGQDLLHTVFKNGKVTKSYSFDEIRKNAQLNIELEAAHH

O=C(NCc1ccc([S+]([O-])c2cc(F)cc(F)c2)cn1)c1cc2cnccc2[nH]1 (racemic) [Example 9, 1H-Pyrrolo[3,2-c]pyridine-2-carboxylic acid [5-(3,5-difluoro-benzenesulfinyl)-pyridin-2-ylmethyl]-amide (racemic)]
IC50 (NAMPT): 55.3 nM
IC50 (A2780 cells; [1]): 209 nM

O=C(NCc1ccc([S+]([O-])c2cc(F)cc(F)c2)cn1)c1ccc2nccn2c1 (racemic) [Example 14, Imidazo[1,2-a]pyridine-6-carboxylic acid [5-(3,5-difluoro-benzenesulfinyl)-pyridin-2-ylmethyl)-amide (racemic)]
IC50 (NAMPT): 36.5 nM
IC50 (A2780 cells; [2]): 51.3 nM

O=C(NCc1ccc([S+]([O-])c2cc(F)cc(F)c2)cn1)c1cnc2[nH]ncc2c1 (racemic) [Example 15, 1H-Pyrazolo[3,4-b]pyridine-5-carboxylic acid [5-(3,5-difluoro-benzenesulfinyl)-pyridin-2-ylmethyl]-amide (racemic)]
IC50 (NAMPT): 357 nM
IC50 (A2780 cells; [1]): 309 nM

O=C(NCc1ccc([S+]([O-])c2cc(F)cc(F)c2)cn1)c1cnc2nccn2c1 (racemic) [Example 24, Imidazo[1,2-a]pyrimidine-6-carboxylic acid [5-(3,5-difluoro-benzenesulfinyl)-pyridin-2-ylmethyl]-amide (racemic)]
IC50 (NAMPT): 16.2 nM
IC50 (A2780 cells; [1]): 275 nM

O=C(NCc1ccc([S+]([O-])c2cc(F)cc(F)c2)cn1)c1ccc2nccn2c1 (racemic) [Example 55, Imidazo[1,2-a]pyridine-6-carboxylic acid [5-(3,5-difluoro-benzenesulfinyl)-pyridin-2-ylmethyl]-amide (racemic)]
IC50 (NAMPT): 15.9 nM
IC50 (A2780 cells; [2]): 41.9 nM

O=C(NCc1ccc([S+]([O-])c2cc(F)cc(F)c2)cn1)c1ccc2nccn2c1 (racemic) [Example 58, Imidazo[1,2-a]pyridine-6-carboxylic acid [5-(3,5-difluoro-benzenesulfinyl)-pyridin-2-ylmethyl]-amide (racemic)]
IC50 (NAMPT): 407 nM
IC50 (A2780 cells; [2]): 959 nM

O=C(NCc1ccc([S+]([O-])c2cccc(C(F)(F)F)c2)cn1)c1cc2ccncc2o1 (racemic) [Example 87, Furo[2,3-c]pyridine-2-carboxylic acid [5-(3-trifluoromethyl-benzenesulfinyl)-pyridin-2-ylmethyl]-amide (racemic)]
IC50 (NAMPT): 17.7 nM
IC50 (A2780 cells; [1]): 15.2 nM

O=C(NCc1ccc([S+]([O-])c2cccc(OC(F)(F)F)c2)cn1)N1Cc2ccncc2C1 (racemic) [Example 89, 1,3-Dihydro-pyrrolo[3,4-c]pyridine-2-carboxylic acid [5-(3-trifluoromethoxy-benzenesulfinyl)-pyridin-2-ylmethyl]-amide (racemic)]
IC50 (NAMPT): 8 nM
IC50 (A2780 cells; [1]): 18.6 nM

O=C(NCc1ccc([S+]([O-])c2cccc(OC(F)(F)F)c2)cn1)c1cc2ccncc2o1 (racemic) [Example 90, Furo[2,3-c]pyridine-2-carboxylic acid [5-(3-trifluoromethoxy-benzenesulfinyl)-pyridin-2-ylmethyl]-amide (racemic)]
IC50 (NAMPT): 16.2 nM
IC50 (A2780 cells; [1]): 25.5 nM

O=C(NCc1ccc([S+]([O-])c2cccc(OC(F)(F)F)c2)cn1)c1ccc2nccn2c1 (racemic) [Example 101, Imidazo[1,2-a]pyridine-6-carboxylic acid [5-(3-trifluoromethoxy-benzenesulfinyl)-pyridin-2-ylmethyl]-amide (racemic)]
IC50 (NAMPT): 31.5 nM
IC50 (A2780 cells; [3]): 40.2 nM

CC(C)CN1CCC([S+]([O-])c2ccc(CNC(=O)c3cc4ccncc4o3)nc2)CC1 (racemic) [Example 102, Furo[2,3-c]pyridine-2-carboxylic acid [5-(1-isobutyl-piperidine-4-sulfinyl)-pyridin-2-ylmethyl]-amide (racemic)]
IC50 (NAMPT): 69.3 nM
IC50 (A2780 cells; [1]): 25.6 nM

O=C(NCc1ccc(S(=O)(=O)c2cc(F)cc(F)c2)cn1)c1cc2ccncc2o1 [Example 5, Furo[2,3-c]pyridine-2-carboxylic acid [5-(3,5-difluoro-benzenesulfonyl)-pyridin-2-ylmethyl]-amide]
IC50 (A2780 cells; [3]): 5.2 nM

O=C(NCc1ncc(S(=O)(=O)c2ccccc2)cn1)c1cc2ccncc2o1 [Example 11, Furo[2,3-c]pyridine-2-carboxylic acid (5-benzenesulfonyl-pyrimidin-2-ylmethyl)-amide]
IC50 (A2780 cells; [1]): 314 nM

O=C(NCc1ccc(S(=O)(=O)c2cccc(OC(F)(F)F)c2)cn1)c1cnc2[nH]ncc2c1 [Example 19, 1H-Pyrazolo[3,4-b]pyridine-5-carboxylic acid [5-(3-trifluoromethoxy-benzenesulfonyl)-pyridin-2-ylmethyl]-amide]
IC50 (A2780 cells; [3]): 28.3 nM

O=C(NCc1ccc(S(=O)(=O)c2cccc(OC(F)(F)F)c2)cn1)c1cc2cnccc2[nH]1 [Example 21, 1H-Pyrrolo[3,2-c]pyridine-2-carboxylic acid [5-(3-trifluoromethoxy-benzenesulfonyl)-pyridin-2-ylmethyl]-amide]
IC50 (A2780 cells; [3]): 10.2 nM

O=C(NCc1ccc(S(=O)(=O)c2cccc(C(F)(F)F)c2)cn1)c1cc2ccncc2o1 [Example 22, Furo[2,3-c]pyridine-2-carboxylic acid [5-(3-trifluoromethyl-benzenesulfonyl)-pyridin-2-ylmethyl]-amide]
IC50 (A2780 cells; [3]): 5.4 nM

CCCn1cc(S(=O)(=O)c2ccc(CNC(=O)c3cc4ccncc4o3)nc2)cn1 [Example 61, Furo[2,3-c]pyridine-2-carboxylic acid [5-(1-propyl-1H-pyrazole-4-sulfonyl)-pyridin-2-ylmethyl]-amide]
IC50 (A2780 cells; [1]): 5.3 nM

CC(C)n1cc(S(=O)(=O)c2ccc(CNC(=O)c3cc4ccncc4o3)nc2)cn1 [Example 62, Furo[2,3-c]pyridine-2-carboxylic acid [5-(1-isopropyl-1H-pyrazole-4-sulfonyl)-pyridin-2-ylmethyl]-amide]
IC50 (A2780 cells; [3]): 11.6 nM

O=C(NCc1ccc(S(=O)(=O)c2cc(F)cc(N3CCOCC3)c2)cn1)c1cc2ccncc2o1 [Example 88, Furo[2,3-c]pyridine-2-carboxylic acid [5-(3-fluoro-5-morpholin-4-yl-benzenesulfonyl)-pyridin-2-ylmethyl]-amide]
IC50 (A2780 cells; [3]): 2 nM

O=C(NCc1ccc(S(=O)(=O)c2ccc(N3CCOCC3)cc2)cn1)N1Cc2ccncc2C1 [Example 97, 1,3-Dihydro-pyrrolo[3,4-c]pyridine-2-carboxylic acid [5-(4-morpholin-4-yl-benzenesulfonyl)-pyridin-2-ylmethyl]-amide]
IC50 (A2780 cells; [3]): 4.23 nM

O=C(NCc1ccc(S(=O)(=O)C2CCN(C3COC3)CC2)cn1)c1cc2ccncc2o1 [Example 103, Furo[2,3-c]pyridine-2-carboxylic acid [5-(1-oxetan-3-yl-piperidine-4-sulfonyl)-pyridin-2-ylmethyl]-amide]
IC50 (A2780 cells; [3]): 38.9 nM

O=C(NCc1ccc(S(=O)(=O)C2CCN(C3CCOCC3)CC2)cn1)c1cc2ccncc2o1 [Example 105, Furo[2,3-c]pyridine-2-carboxylic acid {5-[1-(tetrahydro-pyran-4-yl)-piperidine-4-sulfonyl]-pyridin-2-ylmethyl)-amide]
IC50 (A2780 cells; [3]): 28.6 nM

CN1CCN(c2ccc(S(=O)(=O)c3ccc(CNC(=O)c4cc5ccncc5o4)nc3)cn2)CC1 [Example 113, N-[[5-[[6-(4-methylpiperazin-1-yl)-1-pyridyl]sulfonyl]-2-pyridyl]methyl]furo[2,3-c]pyridine-2-carboxamide]
IC50 (A2780 cells; [2]): 0.488 nM

CCCn1cc(S(=O)(=O)c2ccc(CNC(=O)N3Cc4ccncc4C3)nc2)cn1 [Example 140, N-[[5-(1-propylpyrazol-4-yl)sulfonyl-2-pyridyl]methyl]-1,3-dihydropyrrolo[3,4-c]pyridine-2-carboxamide]
IC50 (A2780 cells; [3]): 37.2 nM

COc1cc(F)cc(S(=O)(=O)c2ccc(CNC(=O)c3cnc4[nH]ncc4c3)nc2)c1 [Example 144, N-[[5-(3-fluoro-5-methoxy-phenyl)sulfonyl-2-pyridyl]methyl]-1H-pyrazolo[3,4-b]pyridine-5-carboxamide]
IC50 (A2780 cells; [3]): 41.5 nM

CCN(C)c1ncc(S(=O)(=O)c2ccc(CNC(=O)c3cc4ccncc4o3)nc2)s1 [Example 146, N-[[5-[2-[ethyl(methyl)amino]thiazol-5-yl]sulfonyl-2-pyridyl]methyl]furo[2,3-c]pyridine-2-carboxamide]
IC50 (A2780 cells; [3]): 3.03 nM

CCn1cc(S(=O)(=O)c2ccc(CNC(=O)c3cc4ccncc4o3)nc2)cn1 [Example 176, N-[[5-(l-ethylpyrazol-4-yl)sulfonyl-2-pyridyl]methyl]furo[2,3-c]pyridine-2-carboxamide]
IC50 (A2780 cells; [3]): 58.8 nM
